Results: PubChem BioAssay (NCI)
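Values below derive from 48-hour exposures of cells grown in 96-well plates, with endpoints linearly interpolated between the two concentrations bracketing the appropriate inhibition level. The concentration for 50% growth inhibition is given as GI50. At the TGI there is no net growth.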

Tests used:
Assay in all cases: growth of human tumour cells (NCI), 48 h
DU-145 prostate = system: DU-145 prostate
KM12 colon = system: KM12 colon
NCI-H460 lung = system: NCI-H460 lung
MDA-MB-435 = system: MDA-MB-435
UACC-62 melanoma = system: UACC-62 melanoma
SN12C renal = system: SN12C renal
HCT-116 colon = system: HCT-116 colon
SK-MEL-5 melanoma = system: SK-MEL-5 melanoma
T-47D breast = system: T-47D breast
SF-295 CNS = system: SF-295 CNS
M14 melanoma = system: M14 melanoma
OVCAR-8 ovarian = system: OVCAR-8 ovarian
OVCAR-5 ovarian = system: OVCAR-5 ovarian
LOX IMVI melanoma = system: LOX IMVI melanoma
RPMI-8226 leukemia = system: RPMI-8226 leukemia
A498 renal = system: A498 renal
IGROV1 ovarian = system: IGROV1 ovarian
MCF7 breast = system: MCF7 breast
COLO 205 colon = system: COLO 205 colon
NCI-H23 lung = system: NCI-H23 lung
UO-31 renal = system: UO-31 renal
U251 CNS = system: U251 CNS
SF-539 CNS = system: SF-539 CNS
SK-MEL-2 melanoma = system: SK-MEL-2 melanoma
EKVX NSCLC = system: EKVX NSCLC
CCRF-CEM leukemia = system: CCRF-CEM leukemia
HL-60(TB) leukemia = system: HL-60(TB) leukemia
HT29 colon = system: HT29 colon
OVCAR-4 ovarian = system: OVCAR-4 ovarian

Structure (SMILES): CCN(CC)CCCCCCNc1cccc2cc(Br)cnc12
- GI50 (DU-145 prostate): 12.7 µM
- TGI (DU-145 prostate): 26.4 µM
- GI50 (KM12 colon): 3.56 µM
- TGI (KM12 colon): 14.3 µM
- GI50 (NCI-H460 lung): 4.25 µM
- TGI (NCI-H460 lung): 16.5 µM
- GI50 (MDA-MB-435): 3.76 µM
- TGI (MDA-MB-435): 12.9 µM
- GI50 (UACC-62 melanoma): 2.07 µM
- TGI (UACC-62 melanoma): 4.7 µM
- GI50 (SN12C renal): 5.92 µM
- TGI (SN12C renal): 21 µM
- GI50 (HCT-116 colon): 3.39 µM
- TGI (HCT-116 colon): 14.2 µM
- GI50 (SK-MEL-5 melanoma): 1.83 µM
- TGI (SK-MEL-5 melanoma): 3.27 µM
- GI50 (T-47D breast): 5.31 µM
- TGI (T-47D breast): 20 µM
- GI50 (SF-295 CNS): 2.88 µM
- TGI (SF-295 CNS): 10 µM
- GI50 (M14 melanoma): 2.05 µM
- TGI (M14 melanoma): 3.93 µM
- GI50 (OVCAR-8 ovarian): 10.1 µM
- TGI (OVCAR-8 ovarian): 23.9 µM
- GI50 (OVCAR-5 ovarian): 6.25 µM
- TGI (OVCAR-5 ovarian): 18.9 µM
- GI50 (LOX IMVI melanoma): 2.64 µM
- TGI (LOX IMVI melanoma): 8.07 µM
- GI50 (RPMI-8226 leukemia): 3.81 µM
- TGI (RPMI-8226 leukemia): 15.5 µM
- GI50 (A498 renal): 4.28 µM
- TGI (A498 renal): 21.3 µM
- GI50 (IGROV1 ovarian): 3.25 µM
- TGI (IGROV1 ovarian): 10.9 µM
- GI50 (MCF7 breast): 3.02 µM
- TGI (MCF7 breast): 11.2 µM
- GI50 (COLO 205 colon): 1.87 µM
- TGI (COLO 205 colon): 3.88 µM
- GI50 (NCI-H23 lung): 5.89 µM
- TGI (NCI-H23 lung): 20.7 µM
- GI50 (UO-31 renal): 3.15 µM
- TGI (UO-31 renal): 15 µM
- GI50 (U251 CNS): 5.36 µM
- TGI (U251 CNS): 17.7 µM
- GI50 (SF-539 CNS): 6.47 µM
- TGI (SF-539 CNS): 20.8 µM
- GI50 (SK-MEL-2 melanoma): 5.01 µM
- TGI (SK-MEL-2 melanoma): 18 µM
- GI50 (EKVX NSCLC): 10.2 µM
- TGI (EKVX NSCLC): 25.1 µM
- GI50 (CCRF-CEM leukemia): 3.13 µM
- TGI (CCRF-CEM leukemia): 11.2 µM
- GI50 (HL-60(TB) leukemia): 2 µM
- TGI (HL-60(TB) leukemia): 4.65 µM
- GI50 (HT29 colon): 1.88 µM
- TGI (HT29 colon): 4.32 µM
- GI50 (OVCAR-4 ovarian): 5.05 µM
- TGI (OVCAR-4 ovarian): 18.9 µM
